Experimental data reported in patent US5710151A, “Method of treating urinary bladder dysfunctions” (priority 1996, dated 1998).
Where a name gives a salt, the structure may show the parent alone.

Tested on: vesico-anal reflex
Experiment: acetic acid-induced vesico-anal reflex
Format: in vivo, rat
Settings: for duration of the increase in vesico-anal reflex activity when administered alone / vesico-anal reflex activity when administered alone: atropine 30 μg/kg-1 mg/kg, oxybutynin 1-3 mg/kg
Source text: The model of visceral nociception that was used in the testing of the compounds according to the method of this invention is the acetic acid-induced vesico-anal reflex. This model utilizes infusion of a dilute acetic acid solution into the urinary bladder as a nociceptive stimulus and records increases in electromyographic (EMG) activity from the anal sphincter as the primary measured response. Anal sphincter EMG activity is composed of 2 components, 1) a small, long duration action potential (ca. 50 msec) that is sensitive to muscarinic antagonists and 2) a larger, short duration action potential (ca. 2 msec) that is sensitive to neuromuscular blocking agents (i.e. mediated by nicotinic receptors). […] It is the striated anal sphincter muscle activity that 1) is associated with bladder activity, 2) is increased by acetic acid infusion into the bladder, and 3) represents the vesico-anal reflex.
In the acetic acid-induced vesico-anal reflex model, bladders of urethane-anesthetized rats were cannulated through the dome for continuous-infusion cystometrogram recordings. EMG electrodes were inserted into the anus and the peri-urethral musculature for recording anal and urethral sphincteric activity, respectively.
Female Sprague-Dawley rats (200-300 g) were anesthetized with 1.4 g/kg urethane (0.7 g administered i.p. and 0.7 g administered s.c.), which was supplemented with 1% isoflurane during surgery. The urinary bladder was exposed through an abdominal incision and cannulated with PE60 tubing attached to a 22 gauge needle that was inserted through the dome of the bladder. A purse-string suture (5-0 silk) through the bladder held the needle in place. The cannula was connected to an infusion pump (Harvard Apparatus, Natick Mass.) and a pressure transducer (Statham Gould, Cleveland, Ohio) through a 3 way stopcock to allow bladder filling and pressure measurement, respectively. The abdominal incision was covered with plastic wrap. A small incision was made in the perineum to allow placement of EMG electrodes into the periurethral musculature. EMG electrodes were also placed into the muscular tissue of the anus. EMG electrodes were connected to preamplifiers (Grass P511, Quincey, Mass.) with low and high pass filters set at 10 and 3000 HZ. […] A catheter inserted into the carotid artery was connected to a pressure transducer (Statham Gould, Cleveland, Ohio) to record arterial pressure, which was used to trigger a heart rate meter (Biotach, Gould, Cleveland, Ohio). A catheter was inserted into the trachea to allow for artificial respiration and monitoring of expired CO2 (Sensor Medics. Anaheim, Calif.).
After establishing control levels of anal and urethral activity, compounds were administered intravenously. Oxotremorine sesquifumarate (Sigma Chemicals, St. Louis, Mo.), atropine sulfate (RBI, Natick, Mo.), (-) scopolamine methyl bromide (RBI), physostigmine free base (Sigma Chemicals), neostigmine bromide (Sigma) and the test compounds were all dissolved in physiological saline.

[1] = 0.5% acetic acid infused into the bladder or urethra

Compound: O=C1CCCN1CC#CCN1CCCC1 [Oxotremorine, Oxotremorine sesquifumarate]
- inhibition of vesico-anal reflex activity (in words) (oxotremorine 1-30 μg/kg iv, test compounds 0.01-1.0 mg/kg iv): dose-dependent inhibition of vesico-anal reflex activity
- inhibition of vesico-anal reflex activity (to % of control) (oxotremorine 1-30 μg/kg iv, urethane-anesthetized rats): 10 % of control

Compound: C[N+]1(C)[C@@H]2C[C@@H](OC(=O)[C@H](CO)c3ccccc3)C[C@H]1[C@@H]1O[C@@H]12 [Scopolamine methyl bromide, (-) scopolamine methyl bromide]
- blocking of the cholinergic agonist-mediated inhibition of the vesico-anal reflex (scopolamine methyl bromide 1-30 ug/kg, peripherally-restricted): ineffective

Compound: CC(=O)O [acetic acid]
- anal sphincter activity [1]: pronounced increases in anal sphincter activity
- bladder contractile activity and urethral sphincter activity [1]: modest increases in bladder contractile activity and urethral sphincter activity
- duration of acetic acid-induced increase in vesico-anal reflex activity (in 95% of the animals): over 2 hours

Compound: CN1C2CCC1CC(OC(=O)C(CO)c1ccccc1)C2 (stereo not drawn) [atropine, atropine sulfate]
- duration of the increase in vesico-anal reflex activity when administered alone: 15 min
- vesico-anal reflex activity when administered alone: robust, but transient (15 min.), increases in vesico-anal reflex activity
- reversal of the cholinergic agonist-induced inhibition of vesico-anal reflex activity (atropine 0.3-1 mg/kg): reversed

Compound: CCN(CC)CC#CCOC(=O)C(O)(c1ccccc1)C1CCCCC1 (stereo not drawn) [oxybutynin]
- duration of the increase in vesico-anal reflex activity when administered alone: 15 min
- vesico-anal reflex activity when administered alone: robust, but transient (15 min.), increases in vesico-anal reflex activity

Compound: CNC(=O)Oc1ccc2c(c1)[C@]1(C)CCN(C)[C@@H]1N2C [physostigmine, physostigmine free base]
- suppression of the VA reflex by cholinesterase inhibitor (centrally active (physostigmine) vs peripherally-restricted (neostigmine)): suppressed the VA reflex in a dose-dependent, atropine-sensitive manner
